Experimental data: a melting point compilation (Tetko et al.; mined from patent text by program, amines drawn as free bases though some values may be those of a salt)

`Cc1c(C)c2c(c(C)c1N)CC(C)(CN1CCC(C(=O)NCC(c3ccccc3)c3ccccc3)CC1)O2` (stereo unspecified) gave a melting point of 168 to 170 °C.
With `O=C(NO)c1ccc(CNC(=O)c2[nH]c(-c3ccccc3)cc2-c2ccc(Cl)c(Cl)c2)cc1` the melting point was 187 to 188 °C.
For `NC(=O)Nc1cccc2c1nc(/C=C/c1ccccc1)n2-c1ccccn1`, the melting point was over 230 °C.
Work on `Fc1ccccc1CSc1nc2cnccc2[nH]1` yielded a melting point of 186 to 188 °C.
`CC(=O)N1CC(CCN2CC=C(c3ccccc3)CC2)c2cc3c(cc21)OCO3` (stereo unspecified) showed a melting point of 90 to 91 °C.
`CN1CCN(Cc2ccccc2)CC(NC(=O)c2n[nH]c3ccccc23)C1` (stereo unspecified) showed a melting point of 192 to 194 °C.
With `O=C(O)C(Cc1ccccc1)Nc1cc(-c2ccc(CCc3ccccc3)cc2)ncn1` (stereo unspecified) the melting point was 216 to 218 °C.
In the case of `Cc1cc(NC(=O)NC(=O)c2ccccc2Cl)nc(C)c1-c1ccccc1`, the melting point is reported as 176 to 189 °C.
`CC(N1CCC(n2c(=O)[nH]c3ccccc32)CC1)N1Sc2ccccc2C1C(N)=O` (stereo unspecified) showed a melting point of 174 to 177 °C.
Work on `CCc1nc2c(cnn2CC)c(NC2CCOCC2)c1CNC(=O)c1cc(C)cc(C(=O)NCc2cccc(-c3cccc(C=O)c3)c2)c1` yielded a melting point of 109 to 112 °C.
Molecule `S=Cc1cccc(Cl)c1Cc1ccccc1` has a melting point of 68 to 70 °C.
In the case of `CCCC(=O)c1cnc2c(OCC)nccc2c1OS(C)(=O)=O`, the melting point is reported as 115 to 116 °C.
`O=S(=O)(NCc1ccc(O)cc1)c1ccc(Cl)cc1` showed a melting point of 187 to 189 °C.
`COC(=O)CCC(=NOCc1ccc(OCc2nc(-c3ccco3)oc2C)c(OC)c1)c1ccccc1` gave a melting point of 67 to 69 °C.
`Cc1cc(C=NNC(N)=S)ncc1[N+](=O)[O-]` gave a melting point of 220 to 222 °C.
In the case of `COc1cc(C(O)C#N)ccc1O` (stereo unspecified), the melting point is reported as 80 to 81 °C.
`Nc1nc(=O)n(COCc2ccccc2)cc1F` gave a melting point of 213 to 217 °C.
In the case of `O=C1c2cc3ccc4c(c3c(-c3ccncc3)c2C[NH+]1[O-])OCO4` (stereo unspecified), the melting point is reported as 270 to 274 °C.
Molecule `Cc1c(CO)ncnc1N1CCCC1` has a melting point of 112 to 114 °C.
For `CC(C)c1nc(CCOC2=CCCc3ccccc32)n(C)c1Sc1cc(Cl)cc(Cl)c1`, the melting point was 99 to 102 °C.
`CC(C)C(=O)NS(=O)(=O)c1cccc(N)c1` showed a melting point of 110 to 112 °C.
Molecule `Cc1ccccc1NC(=O)c1c(C)nn(C)c1N` has a melting point of 113 to 115 °C.
For `CC(C)(C)OC(=O)CN1CC(c2ccc(F)cc2)CCC(N=[N+]=[N-])C1=O` (stereo unspecified), the melting point was 136 to 137 °C.
Work on `CCOC(=O)C1=C(C)NC(N=CN(C)C)=C(C(=O)OCC)C1c1ccccc1` (stereo unspecified) yielded a melting point of 131 °C.
`COc1cc2c(cc1Nc1ncc(Cl)c(N[C@H]3[C@@H](C(N)=O)[C@@H]4C=C[C@H]3C4)n1)CCN(CC(=O)N1CCOCC1)CC2` gave a melting point of 163 °C.
`Cc1cnc(C#N)c(Cl)n1` showed a melting point of 63 to 65 °C.
For `O=S(=O)(c1cccs1)N(CCO)c1cccc2cc(-c3nccs3)[nH]c12`, the melting point was 170 to 171 °C.
Molecule `CC(Br)CCC(C)(N)P(O)O` (stereo unspecified) has a melting point of 146 to 148 °C.
With `CCNC(=O)c1ccc(C2(C(N)=O)CN(C(=O)OC(C)(C)C)CCc3c2cc(CC)c(CC)c3Cl)cc1` (stereo unspecified) the melting point was 89 to 95 °C.
Work on `O=C(O)CCc1ccc(Oc2ccc3c(c2)S(=O)(=O)N=C2CCCN23)cc1` yielded a melting point of 216 to 222 °C.
Molecule `Cc1cnc(S(=O)(=O)c2ccccc2)c(C)c1Cl` has a melting point of 91 to 92 °C.
With `O=C(/C=C/c1cccnc1)N1CCN(C(=O)c2cc(C(F)(F)F)cc(C(F)(F)F)c2)[C@H](Cc2c[nH]c3ccccc23)C1` the melting point was 86.5 to 89.5 °C.
`Cc1sc(C2=NOC(c3cc(Cl)cc(Cl)c3)(C(F)(F)F)C2)cc1Br` (stereo unspecified) gave a melting point of 110 to 112 °C.
Molecule `C=Cc1c(F)c(N2CCN(CC)CC2)c(F)c2c1c(=O)c(C(=O)O)cn2C1CC1` has a melting point of 198 to 200 °C.
Work on `CCNC(=O)n1nc(Oc2ccc(N)c(C(F)(F)F)c2)cc1C` yielded a melting point of 102 to 104 °C.
For `O=c1[nH]c2sc(Cl)c(Cl)c2[nH]c1=O`, the melting point was over 300 °C.
With `Cn1cc(C(=O)NCc2ccc(Cl)cc2)c(=O)c2cc(CN3CCC(F)(F)CC3)ccc21` the melting point was 214 to 215 °C.
`CC#CCOc1ccc([S@](=O)[C@@H](CCCCCC)C(=O)O)cc1` showed a melting point of 112 °C.
`COc1cc(NCCCCCCCl)c2nccc(C)c2c1` gave a melting point of 66 °C.
Work on `NC(=O)c1c(Cl)cn2c1CN(S(=O)(=O)c1ccc(C(F)(F)F)cc1)CC2` yielded a melting point of 159 to 160 °C.
`NS(=O)(=O)c1ccc(NC(=O)c2cccnc2SSc2ncccc2C(=O)Nc2ccc(S(N)(=O)=O)cc2)cc1` gave a melting point of 280 °C.
In the case of `O=C(O)c1c[nH]c2oc3ccccc3c(=O)c2c1=O`, the melting point is reported as 335 to 340 °C.
Molecule `COc1cc(C(=O)c2ccccc2)cc(C#N)c1OC` has a melting point of 98 to 100 °C.
Work on `CCC1Cc2c(C)ccc(NNC(=O)OC)c2O1` (stereo unspecified) yielded a melting point of 98 to 100 °C.
Molecule `O=C(O)c1cn(C2CC2)c2cc(F)c(F)cc2c1=O` has a melting point of 288 to 290 °C.
Work on `COc1ccc(N2Cc3cnc(Nc4ccccc4)nc3N([C@@H](C)CO)C2=O)cc1` yielded a melting point of 140 to 147 °C.
With `O=C(O)C1=Cc2cc(Cl)c(Oc3ccccn3)cc2OC1C(F)(F)F` (stereo unspecified) the melting point was 234 to 235 °C.
Molecule `COCCO[C@@H]1c2ccn3c(Cl)c(C)nc3c2N[C@H](c2ccccc2)[C@H]1O` has a melting point of 123 to 126 °C.
Molecule `CCCCCCCCCCCCCCCCC1CC(=O)N(NC(=O)CCc2cc(C(C)(C)C)c(O)c(C(C)(C)C)c2)C1=O` (stereo unspecified) has a melting point of 85 °C.
For `Cc1cccc(-c2nc(N)sc2-c2ccnc(F)c2)c1`, the melting point was 214 to 218 °C.
In the case of `COc1ccccc1C(CO)c1c[nH]c2c(=O)[nH]c(N)nc12` (stereo unspecified), the melting point is reported as 262 to 265 °C.
With `C/C(=C\c1ccc(C(=O)O)cc1)c1ccc2c(c1)C(C)(C)CC(=O)C2(C)C` the melting point was 249 to 250 °C.
`Nc1ncnc2c1ncn2CC(/C=C/P(=O)(O)O)CO` (stereo unspecified) showed a melting point of over 300 °C.
For `CCN(CC)c1ccc(-c2ccc3c(c2)C=C(C(=O)Nc2ccc(CN(C)C4CCOCC4)cc2)CCS3(=O)=O)cc1`, the melting point was 240 to 246 °C.
`CCCn1nc(C(C)C)c(C(=O)OC(C)OC(=O)OC2CCCCC2)c1Cc1ccc(-c2ccccc2-c2nnn[nH]2)cc1` (stereo unspecified) showed a melting point of 79 to 83 °C.
Molecule `CN(C)C(=O)CC1Cc2ccccc2NC1=O` (stereo unspecified) has a melting point of 172 to 173 °C.
For `CCCCCCCCCCCCc1nnn(C(CCCCCCCCCCCC)C(=O)O)n1` (stereo unspecified), the melting point was 57 to 59 °C.
For `CN(C)Cc1c[nH]c2ccc(CCS(=O)(=O)N(C)C)cc12`, the melting point was 156 to 159 °C.
With `Cc1cccc(NC(=O)OCc2ccccn2)c1CNc1cccn2c(C)c(C)nc12` the melting point was 163 to 165 °C.
With `CC(=O)OC1CSC(Oc2ccccc2-c2c(C)noc2C)C(OC(C)=O)C1OC(C)=O` (stereo unspecified) the melting point was 136 to 138 °C.
For `O=C(NC1CNC1=O)OCc1ccccc1` (stereo unspecified), the melting point was 160 to 161 °C.
In the case of `CCCN1C(=O)c2cnc(-c3ccccc3)nc2N(C(=O)CCl)c2ccccc21`, the melting point is reported as 139 to 140 °C.
With `CCOC(=O)c1conc1-c1ccc(-c2ccccc2)cc1` the melting point was 81 to 82 °C.
Molecule `CCCNc1nnc(C)o1` has a melting point of 46.5 to 47.5 °C.
`CC1(C)CCC(C)(C)c2cc(NC(=O)c3ccc(C=CC(=O)O)cc3)ccc21` gave a melting point of 226 to 227 °C.
With `COC(=O)CCC(=NOCc1ccc(OCc2nc(-c3ccccc3)oc2C)c(OC)c1)c1ccccc1` the melting point was 112 to 114 °C.
Work on `ON(Cn1nnc2ccccc21)Cn1nnc2ccccc21` yielded a melting point of 173 to 174 °C.
Work on `Cc1ccn(-c2ccc(C(=O)N3Cc4ccc(C)n4Cc4ccccc43)c(Cl)c2)n1` yielded a melting point of 178 to 180 °C.
`CC1(C)SC(c2ccc([N+](=O)[O-])o2)NC1C(=O)O` (stereo unspecified) showed a melting point of 147 to 148 °C.
`Cc1ccnc(Nc2nc(-c3c[nH]nc3C(=O)c3ccccc3)cs2)n1` showed a melting point of 254 to 255 °C.
With `Nc1nc2c(ncn2OCC(O)CCP(=O)(O)O)c(=O)[nH]1` (stereo unspecified) the melting point was over 315 °C.
`COC(=O)C=C1NCC(c2ccccc2)OC1=O` (stereo unspecified) gave a melting point of 125 to 126 °C.
Work on `COCN1CC(CN)c2c[nH]c3cccc(c23)C1=O` (stereo unspecified) yielded a melting point of 160 to 163 °C.
`COC(=O)c1sc(-c2ccc(C#N)cc2)nc1C` showed a melting point of 186 to 187 °C.
Work on `Cc1ccc(C(O[Si](C)(C)C(C)(C)C)C(=O)NCCO)cc1` (stereo unspecified) yielded a melting point of 69 to 70 °C.
Work on `O=C(CS(=O)(=O)N1CC=C(c2ccc(-c3ccccc3)cc2)CC1)NO` yielded a melting point of 216 to 218 °C.
In the case of `COc1ccc(S(=O)C(C(=O)NO)C(C)C)cc1` (stereo unspecified), the melting point is reported as 163 °C.
For `COC(=O)c1ccnc(NC(=O)C(C)CSC(C)=O)c1` (stereo unspecified), the melting point was 105 to 106 °C.
For `COC(=O)c1c(NCc2ccc(OC)c(Cl)c2)nc(N2CCC(O)CC2)nc1N1CCn2ccnc2C1`, the melting point was 191 to 194 °C.
Molecule `CCC(CC)Oc1cc(C)nc2c1[nH]c(=O)n2-c1c(C)cc(C)cc1C` has a melting point of 184 to 186 °C.
For `OC1Cn2ccnc2C(=C2CCN(CCc3ccc(OCc4ccc5ccccc5n4)cc3)CC2)c2ccsc21` (stereo unspecified), the melting point was 242 °C.
For `CON=C(C(=O)O)c1cccs1`, the melting point was 106 °C.
With `O=Cc1cc(O)c(O)cc1[N+](=O)[O-]` the melting point was 201 °C.
Work on `CC(C)n1c(=O)n(C)c2cc(-c3ncc(C(F)(F)F)cc3Cl)ccc21` yielded a melting point of 108 to 109 °C.
`COc1cccc2c1CC(=O)c1cc(C(C)C(N)=O)ccc1S2` (stereo unspecified) showed a melting point of 178 to 180 °C.
With `CC(=O)c1ccc2c(c1)C(NC(=NC#N)Nc1ccccc1)C(O)C(C)(C)O2` (stereo unspecified) the melting point was 182 to 184 °C.
For `COc1ccccc1CCNC[C@H](O)COc1ncccc1C#N`, the melting point was 97 to 99 °C.
In the case of `[O-][N+]#Cc1c(Cl)ccc2cc(Cl)cnc12`, the melting point is reported as 185 °C.
`CCOC(=O)Oc1ccc(S(=O)(=O)N2c3ccc(Cl)cc3-n3cccc3C2CC)cc1` (stereo unspecified) gave a melting point of 117 to 119 °C.
`O=C(Nc1ccc(-n2nc(C(F)(F)F)cc2C(F)(F)F)cc1)c1cccc(F)c1` gave a melting point of 148 to 151 °C.
For `CC1SC(c2cccnc2)N(C)C1=O` (stereo unspecified), the melting point was 66.5 to 68.5 °C.
`O=C(O)Cc1ccc(-n2cc(F)cn2)c(Cl)c1` showed a melting point of 110 to 112 °C.
`Cc1cccc(C)c1NCCNCC(O)COc1cccc2[nH]c3ccccc3c12` (stereo unspecified) gave a melting point of 162 to 163 °C.
Work on `N=C(NO)c1ccc(-c2ccc(Br)o2)cc1` yielded a melting point of 116 to 117 °C.
`Cc1cc(COc2nn3c(-c4ccccc4F)nncc3c2-c2ccccc2F)nn1C` showed a melting point of 183 °C.
For `O=C(O)/C=C/c1ccn(C2CCCCCC2)c1`, the melting point was 138 to 140 °C.
Work on `CCCOc1ccc2c(c1)C(=O)C=C2c1ccc2c(c1)OCO2` yielded a melting point of 90 to 93 °C.
`O=C1c2ccccc2C(=O)N1C[C@H]1CN2C(=O)C[C@@H]2O1` (racemic) gave a melting point of 137 to 138 °C.
`Cc1ccccc1-c1nccc2c(CC(=O)O)cccc12` showed a melting point of 192 °C.
`COc1c(C)cc(-c2cc(-c3ccncc3)c(N3CCOCC3)s2)nc1C` gave a melting point of 129 °C.
`c1ccc(-c2ncc(-c3cnc[nH]3)cn2)cc1` gave a melting point of 216 °C.
